Experimental data from patent publication US20040106143A1, “Monoclonal antibody against estrogen stimulated leucine aminopeptidase” (priority 2000, published 2004).

B1: Thioredoxin: thiol-containing peptide; human Thioredoxin purified from CD4+T MP6 cells, compared to E. coli Thioredoxin from Sigma-Aldrich (protein, UniProt P10599 2-105, looked up)
Thioredoxin: VKQIESKTAFQEALDAAGDKLVVVDFSATWCGPCKMIKPFFHSLSEKYSNVIFLEVDVDDCQDVASECEVKCMPTFQFFKKGQKVGEFSGANKEKLEATINELV

Experiments:
[1] = system: primary parental breast carcinoma cells; experiment: LAPase release into cell supernatants following estrogen stimulation; type: cell-based, human
Description: Primary parental breast carcinoma cells were incubated with 100 nM 17-β-Estradiol for 24 hrs and cell media alone as a control. LAPase in supernatants was isolated using MAb 7B6(IgG1a)-protein-G-LAPase beads prepared by covalently cross-linking the monoclonal antibody. LAPase activity of the LAPase-immunoprecipitated supernatants was determined fluorometrically using leucine-β-naphthylamide as the substrate as described by Kuramochi et al. [Kuramochi, H. et al., (1987) J. Antibiot., 401605-1611].
During the same period, LAPase in cell supernatants of control cells remain unchanged. In addition, LAPase activity was determined in supernatants of primary parental cell lines immunoprecipitated with MAb 7B6(IgG1a)-protein-G-LAPase matrix bound antibodies. […] In addition, there was no effect of estrogen incubation on LAPase activity in purified preparations of this enzyme alone.

[2] = system: LAPase (purified preparations obtained from Sigma); experiment: LAPase activity of purified enzyme preparations incubated with 17-β-Estradiol; type: biochemical; settings: 100 nM 17-β-Estradiol, 24 hrs
Description: Purified preparations of the enzyme obtained from Sigma were incubated with 100 nM 17-β-Estradiol for 24 hrs. LAPase activity was determined fluorometrically using leucine-β-naphthylamide as the substrate as described by Kuramochi et al. [Kuramochi, H. et al., (1987) J. Antibiot., 401605-1611].

[3] = system: es-LAPase; experiment: es-LAPase enzyme kinetic inhibition assay (1-leucine-β-naphthylamide substrate); type: biochemical, human; settings: for effect on es-LAPase activity / reaction rate (FIG. 2): 167 μM Bestatin, 167 μM reduced Glutathione, 17 μM reduced thioredoxin, versus control es-LAPase; for Vmax of es-LAPase in presence of inhibitor / Km / Ki: Bestatin 167 μM, Glutathione 167 μM, Thioredoxin 17 μM; for Vmax of es-LAPase in presence of inhibitor: LAPase alone 36.8 ± 1.9; for mode of es-LAPase inhibition: from Vmax, Km and Ki analysis; for Km: LAPase alone 1.67 ± 0.14, read-out: Km of es-LAPase in presence of inhibitor; for Ki: read-out: Ki (inhibition constant)
Description: The kinetic assays were performed using a Spectronic Genesys 5 spectrophotometer from Milton Roy (Rochester, N.Y.). Absorbance was recorded every sixty seconds, over a period of 30 min. Enzyme kinetic assays were performed using 8.0×10^−2 U of es-LAPase in a final reaction volume of 600 μl and triplicate samples. […] A corresponding blank without es-LAPase was used as baseline. Both of the cuvettes were transferred to the spectrophotometer where the 1-leucine-β-naphthylmide solution was added last, marking time zero of the reaction.

Row | Molecule | extracellular LAPase activity of estrogen stimulated cells ([1]; 100 nM, 24 hours, supernatants immunoprecipitated with MAb 7B6-protein-G matrix, control with media alone 6.4×10^−6 U/ml) | estrogen concentration of maximum release / optimal activation of LAPase ([1]; 24 hours of incubation, dose-dependent) | effect of estrogen incubation on LAPase activity in purified preparations of the enzyme alone [2] | effect on es-LAPase activity / reaction rate (FIG. 2) [3] | Vmax of es-LAPase in presence of inhibitor [3] | mode of es-LAPase inhibition [3] | Km [3] | Ki [3]
1 | C[C@]12CC[C@@H]3c4ccc(O)cc4CC[C@H]3[C@@H]1CC[C@@H]2O [estrogen, 17-β-Estradiol] | 7.7×10^−5 U/ml | 100 nM | no effect |  |  |  |  | 
2 | CC(C)C[C@H](NC(=O)[C@@H](O)[C@H](N)Cc1ccccc1)C(=O)O [Bestatin] |  |  |  | clearly inhibits es-LAPase activity | 34.0 ± 3.9 10^−6 M/min | competitive |  | 
3 | N[C@@H](CCC(=O)N[C@@H](CS)C(=O)NCC(=O)O)C(=O)O [Glutathione] |  |  |  | significant slower rates of reaction | 17.2 ± 1.5 10^−6 M/min | noncompetitive | 178 ± 25 µM | 1530 ± 400 nM
4 | B1 |  |  |  | significant slower rates of reaction | 5.31 ± 0.02 10^−6 M/min | uncompetitive | 23.4 ± 0.6 µM | 3400 ± 580 nM
